Data set [1] has as its system A549 (non-small-cell bronchial carcinoma) cells. As to the kind of experiment: Tumor cell uptake in A549 cells. It is filed as cell-based, human. The settings on record: 250 kBq/well, compared to [^18F]FDG. As for the experimental part:
(§1) For the evaluation of the tumor cell uptake of [^18F]glutamic acid, cell uptake experiments were carried out in human A549 (non-small-cell bronchial carcinoma) and HT29 (colonic carcinoma) cells. The tumor cell uptake of the glutamic acid derivatives was compared to
(§2) [^18F]FDG (gold standard for oncological PET investigations).
FIG. 2: Comparison of the time-dependent tumor cell uptake of [^18F]-4-glutamic acid [20-35 μM] (on the left) and [F-18]FDG [2 μM] (on the right) in A549 cells. The cells were incubated with 250 kBq/well. For displacement experiments, L-glutamic acid (1 mM) or glucose (5 mM) was used (mean value±standard deviation, n=3).

The subject of data set [2] is HT29 (colonic carcinoma) cells. As to the kind of experiment: Tumor cell uptake in HT29 cells. The settings on record: compared to [^18F]FDG. It counts as cell-based, human. As for the experimental part: as §1, §2
The subject of data set [3] is murine F9 teratocarcinoma model in NMRI nude mice. As to the kind of experiment: Tumor enrichment and tissue distribution, F9 teratocarcinoma model. Particulars: for Tumor/tissue quotient, Liver: single i.v. As for the experimental part:
(§3) For the evaluation of the tumor enrichment and the tissue distribution in experimental animals, [^18F]-4-glutamic acid was tested in a murine F9 teratocarcinoma model in NMRI nude mice and a murine B16F1 melanoma model in C57BI6 mice.
For this, 1×10^6 cells (F9) or 5×10^5 cells (B16F1) respectively were suspended in 100 μl of phosphate-buffered physiological saline solution and inoculated subcutaneously into the right, rear flank of the corresponding experimental animal species (NMRI for F9 and 057-BI6 for B16F1) (Berndorff et al. Clin. Cancer Res. 2005, 11, 2005). […] [^18F]-4-Glutamic acid (370 kBq, in 100 μl of physiological saline solution) was administered intravenously to the tail vein. […]

The test system of data set [4] is murine B16F1 melanoma model in C57BI6 mice. As to the kind of experiment: Tumor enrichment and tissue distribution, B16F1 melanoma model. Particulars: for Tumor/tissue quotient, Ovary: single i.v.; for Tissue uptake, Brain: single i.v. 111 kBq. As for the experimental part: as §3
For this, 1×10^6 cells (F9) or 5×10^5 cells (B16F1) respectively were suspended in 100 μl of phosphate-buffered physiological saline solution and inoculated subcutaneously into the right, rear flank of the corresponding experimental animal species (NMRI for F9 and 057-BI6 for B16F1) (Berndorff et al. Clin. Cancer Res. 2005, 11, 2005). […] [^18F]-4-Glutamic acid (370 kBq, in 100 μl of physiological saline solution) was administered intravenously to the tail vein. After 15; 60 and 120 min in each case, the animals were killed, organ and tumor removed, weighed and measured for radioactive content.

These results are taken from patent US9375497B2, “[F-18]-labeled L-glutamic acid, [F-18]-labeled L-glutamine, derivatives thereof and use thereof and processes for their preparation” (BAYER SCHERING PHARMA AKTIENGESELLSCHAFT, priority 2006, dated 2016).

For `NC(CC(CCC[18F])C(=O)O)C(=O)O` (centres unmarked) [2-amino-4-(3-[F-18]fluoropropyl)pentanedicarboxylic acid], the tumor cell uptake entry in data set [1] and in data set [2] was “Analogous uptake results” each time.

On to `NC(=O)C([18F])CC(N)C(=O)O` (centres unmarked) [[^18F]-4-glutamine, 2-amino-4-[F-18]fluoroglutamine], for which the tumor cell uptake entry in data set [1] and in data set [2] was “Analogous uptake results” each time.

On to `NC(CC(OCC[18F])C(=O)O)C(=O)O` (centres unmarked) [2-amino-4-(2-[F-18]fluoroethoxy)pentanedicarboxylic acid], for which the tumor cell uptake entry in data set [1] and in data set [2] was “Analogous uptake results” throughout.

As for `N[C@@H](CC[14C](=O)O)C(=O)O` [[^14C]5-glutamic acid, reference compound], the “Tumor/tissue quotient, Liver” value is given as 1.31 in data set [3] (1.0 h (times as Table 5)) and 1.09 in data set [3] (4.0 h (times as Table 5)). In addition, the tumor enrichment came out at 0.98 % ID/g in data set [3] (F9 teratocarcinoma, 1 h after intravenous administration) and 1.03 % ID/g in data set [4] (B16F1 melanoma, 1 h after intravenous administration). The maximal tumor enrichment in data set [3] (F9 teratocarcinoma, similarly early time (30 min)) came to 0.81 % ID/g; in data set [4] (B16F1 melanoma, "at the same time") it was 1.23. The “Tumor/tissue quotient, Ovary” value in data set [4] (0.25 h (times as Table 7)) is reported as 0.47; in data set [4] (1.0 h (times as Table 7)) it was 1.01. For the same compound, the “Tissue uptake, Brain” value in data set [4] (0.25 h) amounted to 0.22 % dose/g; in data set [4] (1.0 h), 0.13 % dose/g; in data set [4] (2.0 h) it was 0.09 % dose/g.
